Measurements from ChEMBL document CHEMBL1201862, “PubChem BioAssay data set” (2004).
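Five concentrations, 48 hours, 96-well plates. GI50 = concentration required for 50% inhibition of growth.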 Activity calls are given as the source filed them. No stated cut-off is given here; in the data, active = GI50 up to about 1.1 µM and inactive = higher.

Tests used:
Test in all cases: NCI tumour cell line growth inhibition, 48 h
SW-620 = test system: SW-620
BT-549 = test system: BT-549
NCI-H522 = test system: NCI-H522
K562 = test system: K562
CCRF-CEM = test system: CCRF-CEM
OVCAR-4 = test system: OVCAR-4
ACHN = test system: ACHN
HL-60 = test system: HL-60
MDA-MB-435 = test system: MDA-MB-435
MOLT-4 = test system: MOLT-4
CAKI-1 = test system: CAKI-1
Malme-3M = test system: Malme-3M
KM12 = test system: KM12
DU-145 = test system: DU-145
SF-268 = test system: SF-268
HOP-62 = test system: HOP-62
HOP-92 = test system: HOP-92
LOX IMVI = test system: LOX IMVI
SK-OV-3 = test system: SK-OV-3
UACC-62 = test system: UACC-62

Compound | GI50 (SW-620) | GI50 (BT-549) | GI50 (NCI-H522) | GI50 (K562) | GI50 (CCRF-CEM) | GI50 (OVCAR-4) | GI50 (ACHN) | GI50 (HL-60) | GI50 (MDA-MB-435) | GI50 (MOLT-4) | GI50 (CAKI-1) | GI50 (Malme-3M) | GI50 (KM12) | GI50 (DU-145) | GI50 (SF-268) | GI50 (HOP-62) | GI50 (HOP-92) | GI50 (LOX IMVI) | GI50 (SK-OV-3) | GI50 (UACC-62)
O=C(N/N=C1\CCc2ccccc2C1)N/N=C1\CCc2ccccc2C1 | > 10 µM (inactive) | > 10 µM (inactive) | > 10 µM (inactive) | > 10 µM (inactive) | > 10 µM (inactive) | > 10 µM (inactive) | > 10 µM (inactive) | > 10 µM (inactive) | > 10 µM (inactive) | > 10 µM (inactive) | > 10 µM (inactive) | > 10 µM (inactive) | > 10 µM (inactive) | > 10 µM (inactive) | > 10 µM (inactive) | > 10 µM (inactive) |  |  |  | 
O=C1c2cc3c(cc2CC12Cc1cc4c(cc1C2=O)CCC4)CCCC3 (centres undefined) | > 100 µM (inactive) |  | > 100 µM (inactive) | > 100 µM (inactive) | > 100 µM (inactive) | > 100 µM (inactive) | > 100 µM (inactive) | > 100 µM (inactive) | > 100 µM (inactive) | > 100 µM (inactive) | > 100 µM (inactive) | 59.4 µM (inactive) |  | > 100 µM (inactive) | > 100 µM (inactive) | > 100 µM (inactive) | > 100 µM (inactive) | > 100 µM (inactive) | > 100 µM (inactive) | 
Cc1ccc(NC(=O)c2cc(S(=O)(=O)Nc3n[nH]c(=O)[nH]3)c(SSc3cc(Cl)c(C(=O)Nc4ccc(C)cc4)cc3S(=O)(=O)Nc3n[nH]c(=O)[nH]3)cc2Cl)cc1 | > 100 µM (inactive) | > 100 µM (inactive) | > 100 µM (inactive) | > 100 µM (inactive) | > 100 µM (inactive) | > 100 µM (inactive) | > 100 µM (inactive) | > 100 µM (inactive) | > 100 µM (inactive) | > 100 µM (inactive) | > 100 µM (inactive) | > 100 µM (inactive) | > 100 µM (inactive) |  | > 100 µM (inactive) | > 100 µM (inactive) | > 100 µM (inactive) | > 100 µM (inactive) | > 100 µM (inactive) | 0.838 µM (active)
CCn1c2nc(=O)n(CCCCCCCCSC(c3ccccc3)(c3ccccc3)c3ccccc3)c(=O)c-2nc2ccccc21 | 3.41 µM (inactive) |  | 3.13 µM (inactive) | 5.55 µM (inactive) | 1.43 µM (inactive) | 9.53 µM (inactive) | 3.21 µM (inactive) | 0.181 µM (active) | 6.12 µM (inactive) | 2.9 µM (inactive) | 5.22 µM (inactive) |  | 9.91 µM (inactive) | 90.6 µM (inactive) | 4.08 µM (inactive) | 27.5 µM (inactive) | 15.5 µM (inactive) | 53.5 µM (inactive) | 82.8 µM (inactive) | 
CN(C(=S)Cc1ccc(Cl)c(Cl)c1)C1CCCC[C@@H]1N1CCCC1 (some centres undefined) | 20.1 µM (inactive) | 72.1 µM (inactive) |  | 61 µM (inactive) |  | 84.9 µM (inactive) | 62.1 µM (inactive) | 28.5 µM (inactive) | 26.6 µM (inactive) | 51.8 µM (inactive) | 44.6 µM (inactive) |  | 44.6 µM (inactive) | > 100 µM (inactive) |  | 54.2 µM (inactive) |  |  | 58.7 µM (inactive) | 17.5 µM (inactive)
Cc1ccc(/N=c2/oc3c(ccc4ccccc43)nc2Nc2ccc(C)cc2)cc1 | > 100 µM (inactive) |  | > 100 µM (inactive) | > 100 µM (inactive) | > 100 µM (inactive) | > 100 µM (inactive) | 80.4 µM (inactive) | > 100 µM (inactive) | > 100 µM (inactive) | > 100 µM (inactive) | > 100 µM (inactive) | > 100 µM (inactive) | > 100 µM (inactive) | > 100 µM (inactive) | > 100 µM (inactive) | > 100 µM (inactive) | > 100 µM (inactive) | > 100 µM (inactive) | > 100 µM (inactive) | > 100 µM (inactive)
O=C1N[C@H](C(=O)O)[C@@H](c2ccc(OCc3ccccc3)cc2)O1 | > 100 µM (inactive) | 32.1 µM (inactive) | 37.3 µM (inactive) | > 100 µM (inactive) | > 100 µM (inactive) | 29.7 µM (inactive) | 36.5 µM (inactive) |  | > 100 µM (inactive) | > 100 µM (inactive) | 34.3 µM (inactive) | > 100 µM (inactive) | > 100 µM (inactive) | 35.5 µM (inactive) | 25.4 µM (inactive) | 13.6 µM (inactive) |  |  | 44.1 µM (inactive) | 67.5 µM (inactive)
CCOC(=O)c1c(SC(=O)c2ccc(C(C)(C)C)cc2)n(-c2ccccc2)c(=S)n(-c2ccccc2)c1=O | > 100 µM (inactive) |  | > 100 µM (inactive) | > 100 µM (inactive) | 29.7 µM (inactive) | > 100 µM (inactive) | > 100 µM (inactive) | > 100 µM (inactive) | > 100 µM (inactive) | 59.4 µM (inactive) | > 100 µM (inactive) | > 100 µM (inactive) | > 100 µM (inactive) | > 100 µM (inactive) | > 100 µM (inactive) | > 100 µM (inactive) | > 100 µM (inactive) | > 100 µM (inactive) | > 100 µM (inactive) | > 100 µM (inactive)
CSC1=C(C#N)C(=O)N(c2ccc(C)cc2)C(=S)C1C#N (centres undefined) | > 100 µM (inactive) | > 100 µM (inactive) | > 100 µM (inactive) | > 100 µM (inactive) | > 100 µM (inactive) | > 100 µM (inactive) | > 100 µM (inactive) | 63.8 µM (inactive) | > 100 µM (inactive) | > 100 µM (inactive) | > 100 µM (inactive) | > 100 µM (inactive) | > 100 µM (inactive) |  | > 100 µM (inactive) | > 100 µM (inactive) | 33.4 µM (inactive) | > 100 µM (inactive) | > 100 µM (inactive) | > 100 µM (inactive)
Brc1ccc(C2=NCSC(c3ccc(Br)cc3)=N2)cc1 | 12.1 µM (inactive) | 52.8 µM (inactive) | 22.2 µM (inactive) | 31 µM (inactive) |  | 41.9 µM (inactive) | 21.7 µM (inactive) | 11 µM (inactive) | 28.8 µM (inactive) | 16.1 µM (inactive) | 7.98 µM (inactive) | 35.2 µM (inactive) | 24.4 µM (inactive) |  | 53.3 µM (inactive) | 39.1 µM (inactive) | 37.7 µM (inactive) | 25.4 µM (inactive) | 43.1 µM (inactive) | 5.3 µM (inactive)
CN/C(=N\CCSCc1nc[nH]c1C)NC#N [CIMETIDINE] | > 100 µM (inactive) |  | > 100 µM (inactive) | > 100 µM (inactive) | > 100 µM (inactive) | 99.5 µM (inactive) | > 100 µM (inactive) | > 100 µM (inactive) | > 100 µM (inactive) | > 100 µM (inactive) | > 100 µM (inactive) | > 100 µM (inactive) | > 100 µM (inactive) | > 100 µM (inactive) | > 100 µM (inactive) | > 100 µM (inactive) | > 100 µM (inactive) | > 100 µM (inactive) | > 100 µM (inactive) | > 100 µM (inactive)
